In patent publication US20030215472A1, “Methods and compositions employing a dialkyl amide” (priority 2002, published 2003):

Key:
[1] = Solubility in cosmetic solvents; type: physicochemical
P. acnes ATCC#11827 [2] = assay: MIC via Zone of Inhibition testing, P. acnes; type: cell-based, Propoinibacterium acnes
Experimental: (§1) For culture preparation, an overnight Tryptic Soy Agar (TSA) culture was grown with M. luteus ATCC #10240. This culture was washed and diluted with saline to 85% transmittance at 530 nm. An overnight anaerobic culture of P. acnes ATCC#11827 was prepared in Brain Heart Infusion Broth (BHIB). This was washed with saline and diluted to 85% transmittance at 530 nm. An overnight aerobic culture of C. xerosis ATCC#373 was also grown in BHIB, washed with saline and diluted to 85% transmittance at 530 nm. These cultures were used as inocula. Three sets of nine different dilutions of sample were prepared for MIC results using TSA or BHIB as follows: (1) 2.0 grams sample+8.0 mL media=1:5 or 20%; (2) 2.0 mL of #1+8.0 mL media=1:25 or 4%; (3) 2.0 mL of #2+8.0 mL media=1:125 or 0.8%; (4) 2.0 mL of #3+8.0 mL media=1:625 or 0.16%; (5) 2.0 mL of #4+8.0 mL media=1:3125 or 0.032%; (6) 2.0 mL of #5+8.0 mL media=1:15625 or 0.0064%; (7) 2.0 mL of #6+8.0 mL media=1:78125 or 0.00128%; (8) 2.0 mL of #7+8.0 mL media=1:390625 or 0.000256%; and (9) 2.0 mL of #8+8.0 mL media=1:1953125 or 0.0000512%.
(§2) The product dilutions were dispensed onto Zone of Inhibition plates. TSA and BHIB plates were prepared by using the base and seed method. Seed consisted of 2.0 mL of inoculum per 20.0 mL of TSA or BHIB used. A single penicylinder placed in the center of the plate when agar was solidified. Each penicylinder was inoculated with 200 μL of the MIC dilutions listed above; this procedure was performed in duplicate. Control plates were performed simultaneously; also using the base and seed method. M. luteus plates were incubated for 48 hours at 30° C. to 35° C. P. acnes plates were incubated for 5-7 days 36° C. to 38° C. anaerobically, C. xerosis plates were incubated aerobically at 36° C. to 38° C. Plates were measured for zones and calculated in millimeters.
(§3) For MLC Preparation, swabbing of the zones was performed to calculate MLC results. […] These swabs were then placed in TSA or BHIB for incubation. M. luteus tubes were incubated for 48 hours at 30° C. to 35° C. P. acnes tubes were incubated for 5-7 days at 35° C. to 38° C. anaerobically, C. xerosis tubes were incubated aerobically at 36° C. to 38° C. Tubes were inspected visually for growth and indicated below. Numbers indicate the average of the zone sizes on the two plates (in millimeters) as per MIC dilution. MLC results are recorded as positive or negative for growth.

C. xerosis ATCC#373 [3] = assay: MLC by swabbing of the zones, C. xerosis; type: cell-based, Corynebacterium xerosis; parameters: key: (+): MLC results are recorded as positive or negative for growth; (−): MLC results are recorded as positive or negative for growth
Experimental: as §3

gram-positive bacteria = assay: Killing and suppressing gram-positive bacteria; type: cell-based
[4] = system: Micrococcus luteus ATCC #10240; assay: MIC via Zone of Inhibition testing, M. luteus; type: cell-based
Experimental: as §1, §2
For MLC Preparation, swabbing of the zones was performed to calculate MLC results. […] These swabs were then placed in TSA or BHIB for incubation. […] MLC results are recorded as positive or negative for growth.

[5] = system: Micrococcus luteus ATCC #10240; assay: MLC by swabbing of the zones, M. luteus; type: cell-based; parameters: key: (+): MLC results are recorded as positive or negative for growth; (−): MLC results are recorded as positive or negative for growth
Experimental: as §3

P. acnes ATCC#11827 [6] = assay: MLC by swabbing of the zones, P. acnes; type: cell-based, Propoinibacterium acnes; parameters: key: (+): MLC results are recorded as positive or negative for growth; (−): MLC results are recorded as positive or negative for growth
Experimental: as §3

C. xerosis ATCC#373 [7] = assay: MIC via Zone of Inhibition testing, C. xerosis; type: cell-based, Corynebacterium xerosis
Experimental: as §1, §2, §3

human skin = assay: Irritation and sensitization of human skin; type: in vivo; conditions: at levels effective for suppressing malodor formation

In the case of `CCCCCCCCCC(=O)N(C)C` [dimethyl capramide, N,N-dimethyldecanamide], the solubility ([1]; in cyclomethicone) is reported as “greater than 50 wt. %”, the solubility ([1]; in propylene glycol) is reported as “greater than 50 wt. %” and the “MIC/Zone of Inhibition, average zone size” value (shortened to “MIC/Zone of Inhibition”) (P. acnes ATCC#11827 [2]; dilution 1:5 (20%)) is reported as 21.2 millimeters. The “MIC/Zone of Inhibition” value (P. acnes ATCC#11827 [2]; dilution 1:25 (4%)) was 23.8 millimeters, the “MIC/Zone of Inhibition” value (P. acnes ATCC#11827 [2]; dilution 1:125 (0.8%)) was 18.0 millimeters and the “MIC/Zone of Inhibition” value (P. acnes ATCC#11827 [2]; dilution 1:625 (0.16%)) was 8.1 millimeters. The “MLC Results, growth from swabbed zone” value (C. xerosis ATCC#373 [3]; dilution 1:5 (20%)) was “(−)”, the “MLC Results, growth from swabbed zone” value (C. xerosis ATCC#373 [3]; dilution 1:25 (4%)) was “(−)” and the “MLC Results, growth from swabbed zone” value (C. xerosis ATCC#373 [3]; dilution 1:125 (0.8%)) was “(−)”. The “MLC Results, growth from swabbed zone” value (C. xerosis ATCC#373 [3]; dilution 1:625 (0.16%)) was “(+)”, the “MLC Results, growth from swabbed zone” value (C. xerosis ATCC#373 [3]; dilution 1:3125 (0.032%)) was “(+)” and the “killing and suppressing gram-positive bacteria” value (gram-positive bacteria) was “effective in killing and suppressing”. For the same compound, the “MIC/Zone of Inhibition” value ([4]; dilution 1:5 (20%)) was 14.7 millimeters, the “MIC/Zone of Inhibition” value ([4]; dilution 1:25 (4%)) was 14.2 millimeters and the “MIC/Zone of Inhibition” value ([4]; dilution 1:125 (0.8%)) was 13.6 millimeters. The “MLC Results, growth from swabbed zone” value ([5]; dilution 1:5 (20%)) was “(−)”, the “MLC Results, growth from swabbed zone” value ([5]; dilution 1:25 (4%)) was “(+)” and the “MLC Results, growth from swabbed zone” value ([5]; dilution 1:125 (0.8%)) was “(+)”. The “MLC Results, growth from swabbed zone” value (P. acnes ATCC#11827 [6]; dilution 1:5 (20%)) was “(−)”, the “MLC Results, growth from swabbed zone” value (P. acnes ATCC#11827 [6]; dilution 1:25 (4%)) was “(−)” and the “MLC Results, growth from swabbed zone” value (P. acnes ATCC#11827 [6]; dilution 1:125 (0.8%)) was “(+)”. The “MLC Results, growth from swabbed zone” value (P. acnes ATCC#11827 [6]; dilution 1:625 (0.16%)) was “(+)”, the “MIC/Zone of Inhibition” value (C. xerosis ATCC#373 [7]; dilution 1:5 (20%)) was 20.2 millimeters and the “MIC/Zone of Inhibition” value (C. xerosis ATCC#373 [7]; dilution 1:25 (4%)) was 13.9 millimeters. The “MIC/Zone of Inhibition” value (C. xerosis ATCC#373 [7]; dilution 1:125 (0.8%)) was 17.3 millimeters, the “MIC/Zone of Inhibition” value (C. xerosis ATCC#373 [7]; dilution 1:625 (0.16%)) was 8.6 millimeters and the “MIC/Zone of Inhibition” value (C. xerosis ATCC#373 [7]; dilution 1:3125 (0.032%)) was 7.2 millimeters. For the same compound, the “irritation of human skin” value (human skin) was “non-irritating”.
